18 compounds from patent US20240166693A1, “METHODS AND COMPOUNDS FOR MODULATING MYOTONIC DYSTROPY 1” (Design Therapeutics, Inc., priority 2020, published 2024) can be followed below.

What is called EC50 is the concentration that produces a half-maximal response.

The structures appear in SMILES notation. Like-named read-outs stand apart in the source and are kept apart here. A value given as a limit tells only on which side of the number the result lay.

The test system of the experiment is Myotonic Dystrophy 1 affected patient fibroblasts (Coriell GM04602; 1600 CTG repeats). Put plainly: DM1 foci reduction assay (CAG10-Cy3 FISH, average foci per nucleus). The conditions noted are these: Homo sapiens, Fibroblast. The experiment is classed as cell-based. As to the method: DM1 foci reduction assay methods: Myotonic Dystrophy 1 affected patient fibroblasts (Coriell GM04602; 1600 CTG repeats) and wild type fibroblasts (Coriell GM07492; control line) were cultured separately in Gibco DMEM (1×)+4.5 g/L D-Glucose+L-Glutamine+110 mg/L Sodium Pyruvate, supplemented with 10% FBS and 1× Pen/Strep. Cells were maintained in incubator at 37° C. and 5% CO2 with media refresh every 48-72 hours.
At 90-95% confluency, both cell lines were harvested using Trypl-E then pelleted at 500×g for 5 minutes and were resuspended in media. DM1 fibroblasts were seeded in Agilent 96 well black plates at a density of 5,000 cells/well in 200 μL media; 8 wells were reserved for control fibroblasts. Plates were returned to incubator for 24 hours at 37° C. and 5% CO2.
Compounds were diluted from 10 mM stock to 1 mM in DMSO, then diluted once more to 6 μM (2× concentration) in media. Media was removed from all plates and cells were replenished with 100 μL media. Cells were treated in 8-point dose response, 1:3 fold dilution, 3 μM top dose via addition of 100 μL of 6 μM (2× concentration) compound to the 100 μL media with cells. Plates were returned to incubator for 48-hour time-course experiment at 37° C. and 5% CO2.
Following treatment, compounds were removed, and plates were washed with PBS, then cells were fixed in 75 μL 4% PFA solution for 20 minutes at room temperature. Plates were washed twice with PBS and twice with cold 70% ethanol before permeabilization with 250 μL cold 70% ethanol for 24-72 hours at −20° C.
After permeabilization, plates were washed once with a 30% formamide and 2×SSC buffer and rehydrated in that buffer for 15 minutes at room temperature. Cells were incubated overnight at 37° C. in 75 μL of a hybridization solution containing 30% formamide, 2×SSC, 25 mg/mL dextran sulfate, 2.5 mg/mL BSA, 0.2 μg/mL Herring sperm DNA, 2 mM vanadyl-ribonucleoside complex, and 5 nM CAG10-Cy3 probe.
Plates were washed once with 30% formamide in 2×SSC buffer, then twice with the buffer for 30 minutes at 37° C., 300 RPM in an incubating plate shaker. Cells were stained with 75 μL of 2.5 μg/mL DAPI in PBS for 5 minutes at room temperature. Plates were then washed twice with PBS and stored in 250 μL PBS. Plates were sealed with adhesive foil and wiped down with 70% ethanol.
Cells were imaged on a Cytation5 with a 20× objective sampling from 4 areas of each well. Nuclei were captured under DAPI channel and foci under RFP channel. Plates were analyzed on an average foci per nucleus per well basis.

Setting [1] is: 48 h, read-out: Foci Reduction in Fibroblast EC50, 48 h (nM).

For the compound `Cc1nc(CCC(=O)NCCOCCOCCOCCOCCOCCOCCOCCOCCOCCOCCOCCOCCOCCOCCOCCNC(=O)CCNC(=O)c2nc(NC(=O)c3cc(NC(=O)CCNC(=O)c4nc(NC(=O)CCCNC(=O)c5cc(NC(=O)c6nc(NC(=O)CCNC(=O)c7cc(NC(=O)c8nccn8C)cn7C)cn6C)cn5C)cn4C)cn3C)cn2C)ccc1-c1cnc(NCc2c(F)ccc3c2CCO3)n2cnnc12` [Compound 63], where the note is “DM1 fibroblasts, 48 h treatment, 8-point dose response, 3 μM top dose, read-out: Foci Reduction in Fibroblast EC50, 48 h”, the EC50 was more than 500 nM.

As for `CCN(CC)CCCC[C@H](NC(=O)[C@H](CC(C)C)NC(=O)[C@H](C)NC(=O)[C@H](Cc1ccccc1)NC(=O)c1ccc(C(C)(C)C)cc1)C(=O)N[C@@H](CO)C(=O)NCCOCCOCCNC(=O)CCNC(=O)c1nc(NC(=O)c2cc(NC(=O)CCNC(=O)c3[nH]c(NC(=O)CCCNC(=O)c4cc(NC(=O)c5nc(NC(=O)CCNC(=O)c6cc(NC(=O)c7nccn7C)cn6C)cn5C)cn4C)cc3C)cn2C)cn1C` [Compound 64], the EC50 under setting [1] was less than 100 nM.

`CCN(CC)CCCC[C@H](NC(C)=O)C(=O)N[C@@H](CO)C(=O)NCCOCCOCCOCCOCCOCCNC(=O)CCNC(=O)c1nc(NC(=O)c2cc(NC(=O)CCCC(=O)c3nc(NC(=O)CCCNC(=O)c4cc(NC(=O)c5nc(NC(=O)CCNC(=O)c6cc(NC(=O)c7nccn7C)cn6C)cn5C)cn4C)cn3C)cn2C)cn1C` [Compound 65]: the EC50 under setting [1] was more than 500 nM.

Consider `CCN(CC)CCCC[C@H](NC(=O)COCCOCCNC(=O)c1ccc(C(C)(C)C)cc1)C(=O)N[C@@H](CO)C(=O)NCCOCCOCCOCCOCCOCCNC(=O)CCNC(=O)c1nc(NC(=O)c2cc(NC(=O)CCNC(=O)c3nc(NC(=O)CCCNC(=O)c4cc(NC(=O)c5nc(NC(=O)CCNC(=O)c6cc(NC(=O)c7nccn7C)cn6C)cn5C)cn4C)cn3C)cn2C)cn1C` [Compound 66], for which the EC50 under setting [1] lay within 100 to 500 nM.

As for `CC(=O)N[C@@H](CCCCN(C)C1CC2CCC1C2)C(=O)N[C@@H](CO)C(=O)NCCOCCOCCOCCOCCOCCNC(=O)CCNC(=O)c1nc(NC(=O)c2cc(NC(=O)CCNC(=O)c3nc(NC(=O)CCCNC(=O)c4cc(NC(=O)c5nc(NC(=O)CCNC(=O)c6cc(NC(=O)c7nccn7C)cn6C)cn5C)cn4C)cn3C)cn2C)cn1C` (stereo partly drawn) [Compound 67], the EC50 under setting [1] fell in the range of 100 to 500 nM.

Regarding `CN(CCCC[C@H](NC(=O)COCCOCCNC(=O)c1ccc(C(C)(C)C)cc1)C(=O)N[C@@H](CO)C(=O)NCCOCCOCCOCCOCCOCCNC(=O)CCNC(=O)c1nc(NC(=O)c2cc(NC(=O)CCNC(=O)c3nc(NC(=O)CCCNC(=O)c4cc(NC(=O)c5nc(NC(=O)CCNC(=O)c6cc(NC(=O)c7nccn7C)cn6C)cn5C)cn4C)cn3C)cn2C)cn1C)C1CC2CCC1C2` (stereo partly drawn) [Compound 68], the EC50 under setting [1] lay within 100 to 500 nM.

On to `CCN(CC)CCCC[C@H](NC(=O)[C@H](CC(C)C)NC(=O)[C@H](C)NC(=O)[C@H](Cc1ccccc1)NC(=O)c1ccc(C(C)(C)C)cc1)C(=O)N[C@@H](CO)C(=O)NCCNC(=O)CCNC(=O)c1nc(NC(=O)c2cc(NC(=O)CCNC(=O)c3nc(NC(=O)CCCNC(=O)c4cc(NC(=O)c5nc(NC(=O)CCNC(=O)c6cc(NC(=O)c7nccn7C)cn6C)cn5C)cn4C)cn3C)cn2C)cn1C` [Compound 70], for which, under setting [1], the EC50 was less than 100 nM.

`CCN(CC)CCCC[C@H](NC(=O)[C@H](CC(C)C)NC(=O)[C@H](C)NC(=O)[C@H](Cc1ccccc1)NC(=O)c1ccc(C(C)(C)C)cc1)C(=O)N[C@@H](CO)C(=O)NCCOCCOCCOCCOCCNC(=O)CCNC(=O)c1nc(NC(=O)c2cc(NC(=O)CCNC(=O)c3nc(NC(=O)CCCNC(=O)c4cc(NC(=O)c5nc(NC(=O)CCNC(=O)c6cc(NC(=O)c7nccn7C)cn6C)cn5C)cn4C)cn3C)cn2C)cn1C` [Compound 72]: the EC50 under setting [1] was less than 100 nM.

For the compound `CCN(CC)CCCC[C@H](NC(=O)[C@H](CC(C)C)NC(=O)[C@H](C)NC(=O)[C@H](Cc1ccccc1)NC(=O)c1ccc(C(C)(C)C)cc1)C(=O)N[C@@H](CO)C(=O)NCCOCCOCCOCCNC(=O)CCNC(=O)c1nc(NC(=O)c2cc(NC(=O)CCNC(=O)c3nc(NC(=O)CCCNC(=O)c4cc(NC(=O)c5nc(NC(=O)CCNC(=O)c6cc(NC(=O)c7nccn7C)cn6C)cn5C)cn4C)cn3C)cn2C)cn1C` [Compound 73], under setting [1], the EC50 was less than 100 nM.

`CCN(CC)CCCC[C@H](NC(=O)[C@H](CC(C)C)NC(=O)[C@H](C)NC(=O)[C@H](Cc1ccccc1)NC(=O)c1ccc(C(C)(C)C)cc1)C(=O)N[C@@H](CO)C(=O)NCCOCCOCCN(C)C(=O)CCNC(=O)c1nc(NC(=O)c2cc(NC(=O)CCNC(=O)c3nc(NC(=O)CCCNC(=O)c4cc(NC(=O)c5nc(NC(=O)CCNC(=O)c6cc(NC(=O)c7nccn7C)cn6C)cn5C)cn4C)cn3C)cn2C)cn1C` [Compound 74]: under setting [1], the EC50 is less than 100 nM.

Regarding `CCN(CC)CCCC[C@H](NC(=O)[C@H](CC(C)C)NC(=O)[C@H](C)NC(=O)[C@H](Cc1ccccc1)NC(=O)c1ccc(C(C)(C)C)cc1)C(=O)N[C@@H](CO)C(=O)N(C)CCOCCOCCNC(=O)CCNC(=O)c1nc(NC(=O)c2cc(NC(=O)CCNC(=O)c3nc(NC(=O)CCCNC(=O)c4cc(NC(=O)c5nc(NC(=O)CCNC(=O)c6cc(NC(=O)c7nccn7C)cn6C)cn5C)cn4C)cn3C)cn2C)cn1C` [Compound 75], the EC50 under setting [1] was less than 100 nM.

For the compound `CCN(CC)CCCC[C@H](NC(=O)[C@H](CC(C)C)NC(=O)[C@H](C)NC(=O)[C@H](Cc1ccccc1)NC(=O)c1ccc(C(C)(C)C)cc1)C(=O)N[C@@H](CO)C(=O)N(C)CCOCCOCCN(C)C(=O)CCNC(=O)c1nc(NC(=O)c2cc(NC(=O)CCNC(=O)c3nc(NC(=O)CCCNC(=O)c4cc(NC(=O)c5nc(NC(=O)CCNC(=O)c6cc(NC(=O)c7nccn7C)cn6C)cn5C)cn4C)cn3C)cn2C)cn1C` [Compound 76], the EC50 under setting [1] is less than 100 nM.

As for `CC(C)C[C@H](NC(=O)[C@H](C)NC(=O)[C@H](Cc1ccccc1)NC(=O)c1ccc(C(C)(C)C)cc1)C(=O)N[C@@H](CCCCN(C)C1CC2CCC1C2)C(=O)N[C@@H](CO)C(=O)NCCOCCOCCNC(=O)CCNC(=O)c1nc(NC(=O)c2cc(NC(=O)CCNC(=O)c3nc(NC(=O)CCCNC(=O)c4cc(NC(=O)c5nc(NC(=O)CCNC(=O)c6cc(NC(=O)c7nccn7C)cn6C)cn5C)cn4C)cn3C)cn2C)cn1C` (stereo partly drawn) [Compound 77], the EC50 under setting [1] is less than 100 nM.

For the compound `CCN(CC)CCCC[C@H](NC(=O)[C@H](CC(C)C)NC(=O)[C@H](C)NC(=O)[C@H](Cc1ccccc1)NC(=O)c1ccc(C(C)(C)C)cc1)C(=O)N[C@@H](CO)C(=O)NCCOCCOCCNC(=O)c1cc(NC(=O)c2cc(NC(=O)c3nc(NC(=O)c4cc(NC(=O)[C@@H](N)CCNC(=O)c5nc(NC(=O)c6cc(NC(=O)c7cc(NC(=O)c8nccn8C)cn7C)cn6C)cn5C)cn4C)cn3C)cn2C)cn1C` [Compound 78], the EC50 under setting [1] was more than 500 nM.

For `CCN(CC)CCCC[C@H](NC(=O)[C@H](CC(C)C)NC(=O)[C@H](C)NC(=O)[C@H](Cc1ccccc1)NC(=O)c1ccc(C(C)(C)C)cc1)C(=O)N[C@@H](CO)C(=O)NCCOCCOCCNC(=O)c1cc(NC(=O)c2nc(NC(=O)c3cc(NC(=O)[C@@H](N)CCNC(=O)c4nc(NC(=O)c5cc(NC(=O)c6cc(NC(=O)c7nccn7C)cn6C)cn5C)cn4C)cn3C)cn2C)cn1C` [Compound 79], the EC50 under setting [1] was more than 500 nM.

For `CCN(CC)CCCC[C@H](NC(=O)COCCOCCNC(=O)c1ccc(C(C)(C)C)cc1)C(=O)N[C@@H](CO)C(=O)NCCOCCOCCNC(=O)CCNC(=O)c1nc(NC(=O)c2cc(NC(=O)CCNC(=O)c3nc(NC(=O)CCCNC(=O)c4cc(NC(=O)c5nc(NC(=O)CCNC(=O)c6cc(NC(=O)c7nccn7C)cn6C)cn5C)cn4C)cn3C)cn2C)cn1C` [Compound 81], the EC50 under setting [1] is less than 100 nM.

In the case of `CCN(CC)CCCC[C@H](NC(=O)[C@H](CC(C)C)NC(=O)[C@H](C)NC(=O)[C@H](Cc1ccccc1)NC(=O)c1ccc(C(C)(C)C)cc1)C(=O)N[C@@H](CO)C(=O)NCCOCCOCCNC(=O)c1cc(NC(=O)c2cc(NC(=O)c3nc(NC(=O)c4cc(NC(=O)[C@@H](N)CCNC(=O)c5nc(NC(=O)CCNC(=O)c6cc(NC(=O)c7nccn7C)cn6C)cn5C)cn4C)cn3C)cn2C)cn1C` [Compound 82], the EC50 under setting [1] is more than 500 nM.

For `CC(C)C[C@H](NC(=O)[C@H](C)NC(=O)[C@H](Cc1ccccc1)NC(=O)c1ccc(C(C)(C)C)cc1)C(=O)N[C@@H](CCCCN(C)C1CC2CCC1C2)C(=O)N[C@@H](CO)C(=O)NCCOCCOCCNC(=O)c1cc(NC(=O)c2cc(NC(=O)c3nc(NC(=O)c4cc(NC(=O)[C@@H](N)CCNC(=O)c5nc(NC(=O)CCNC(=O)c6cc(NC(=O)c7nccn7C)cn6C)cn5C)cn4C)cn3C)cn2C)cn1C` (stereo partly drawn) [Compound 83], the EC50 under setting [1] was more than 500 nM.
